Laboratory results published in PubChem BioAssay AID248 (DTP/NCI, 2004).
Values joined by “and” are separate entries in the source; they are usually repeats but may differ in a detail not shown here. Identical values can stand only once. Toxic doses and inconclusive results are not listed. Rule as the data show it: active = T/C of 150% or more; inactive = T/C below 125%.

System: L1210 leukemia ip in BDF1 mice, survival T/C
Experiment: NCI In Vivo Anticancer Drug Screen. Data for tumor model L1210 Leukemia (intraperitoneal) in B6D2F1 (BDF1) mice
Settings: endpoint: mean survival time, higher = longer survival
Summary of the method: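 Transplantable tumor model; survival measured in treated vs vehicle control mice. Value = treated/control.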

[1] = dose: 200.0 mg/kg/injection, schedule: Q01DX001 (ip), vehicle: carboxymethylcellulose (CMC)
[2] = dose: 100.0 mg/kg/injection, schedule: Q01DX001 (ip), vehicle: saline with Tween-80
[3] = dose: 200.0 mg/kg/injection, schedule: Q01DX001 (ip), vehicle: saline with Tween-80
[4] = dose: 400.0 mg/kg/injection, schedule: Q01DX001 (ip), vehicle: saline with Tween-80
[5] = dose: 100.0 mg/kg/injection, schedule: Q04DX003 (ip), vehicle: saline
[6] = dose: 200.0 mg/kg/injection, schedule: Q04DX003 (ip), vehicle: saline
[7] = dose: 100.0 mg/kg/injection, schedule: Q01DX009 (ip), vehicle: saline with Tween-80
[8] = dose: 100.0 mg/kg/injection, schedule: Q01DX001 (ip), vehicle: carboxymethylcellulose (CMC)
[9] = dose: 400.0 mg/kg/injection, schedule: Q01DX001 (ip), vehicle: carboxymethylcellulose (CMC)

Measured: T/C

C/C(=N/N=C(N)N)C(F)(F)F
inactive: dose: 15.0 mg/kg/injection, schedule: Q01DX Z (ip), vehicle: saline 104 % of control | dose: 15.0 mg/kg/injection, schedule: Q01DX Z (oral), vehicle: saline 108 % of control | dose: 30.0 mg/kg/injection, schedule: Q01DX Z (ip), vehicle: saline 87 % of control | dose: 30.0 mg/kg/injection, schedule: Q01DX Z (oral), vehicle: saline 106 % of control

C1=Cc2ccccc2Sc2ccccc21
inactive: dose: 50.0 mg/kg/injection, schedule: Q01DX001 (ip), vehicle: carboxymethylcellulose (CMC) 98 % of control | [1] 98 % of control

CC1(C)CC(C(=O)O)C(=O)O1 (centres undefined)
inactive: dose: 75.0 mg/kg/injection, schedule: Q01DX001 (ip), vehicle: saline 97 % of control | dose: 150.0 mg/kg/injection, schedule: Q01DX001 (ip), vehicle: saline 103 % of control | dose: 300.0 mg/kg/injection, schedule: Q01DX001 (ip), vehicle: saline 98 % of control

O=C1C=C(c2ccccc2)C(=O)C=C1c1ccccc1
inactive: dose: 6.25 mg/kg/injection, schedule: Q01DX009 (ip), vehicle: water 94 % of control | dose: 12.5 mg/kg/injection, schedule: Q01DX009 (ip), vehicle: water 86 % of control | dose: 25.0 mg/kg/injection, schedule: Q01DX009 (ip), vehicle: water 103 % of control | dose: 25.0 mg/kg/injection, schedule: Q04DX003 (ip), vehicle: gum acacia 94 % of control | dose: 50.0 mg/kg/injection, schedule: Q01DX009 (ip), vehicle: water 86 % of control | dose: 50.0 mg/kg/injection, schedule: Q04DX003 (ip), vehicle: gum acacia 94 % of control | dose: 100.0 mg/kg/injection, schedule: Q04DX003 (ip), vehicle: gum acacia 105 % of control

O=c1ccn(CCCc2ccccc2)c(=O)[nH]1
inactive: dose: 100.0 mg/kg/injection, schedule: Q01DX009 (ip), vehicle: Klucel (hydroxypropylcellulose) (HPC) 94 % of control | dose: 200.0 mg/kg/injection, schedule: Q01DX009 (ip), vehicle: Klucel (hydroxypropylcellulose) (HPC) 109 % of control | dose: 400.0 mg/kg/injection, schedule: Q01DX009 (ip), vehicle: Klucel (hydroxypropylcellulose) (HPC) 94 % of control

CCC(C)OC(=O)Nc1cccc(OC(=O)N(CC)CC)c1 (centres undefined)
inactive: [2] 103 % of control | [3] 90 % of control | [4] 100 % of control

O=C1C=CC(=O)N1c1ccc2c(c1)oc(=O)c1ccccc12
inactive: dose: 37.5 mg/kg/injection, schedule: Q01DX009 (ip), vehicle: saline with Tween-80 92 % of control | dose: 50.0 mg/kg/injection, schedule: Q04DX003 (ip), vehicle: saline 96 % of control | dose: 100.0 mg/kg/injection, schedule: Q01DX001 (ip), vehicle: saline 97 % of control | [5] 96 % of control | dose: 200.0 mg/kg/injection, schedule: Q01DX001 (ip), vehicle: saline 92 % of control | [6] 97 % of control

C=CS(=O)(=O)CCc1ccccc1
inactive: dose: 100.0 mg/kg/injection, schedule: Q04DX002 (ip), vehicle: saline with Tween-80 115 % of control | dose: 200.0 mg/kg/injection, schedule: Q04DX002 (ip), vehicle: saline with Tween-80 102 % of control | dose: 400.0 mg/kg/injection, schedule: Q04DX002 (ip), vehicle: saline with Tween-80 91 % of control

O=S1(=O)C=C(Cl)C2C3C=CC(C3)C21 (centres undefined)
inactive: dose: 0.62 mg/kg/injection, schedule: Q01DX009 (ip), vehicle: acetone 101 % of control | dose: 1.25 mg/kg/injection, schedule: Q01DX009 (ip), vehicle: acetone 104 % of control | dose: 2.5 mg/kg/injection, schedule: Q04DX003 (ip), vehicle: acetone 90 % of control | dose: 5.0 mg/kg/injection, schedule: Q04DX003 (ip), vehicle: acetone 92 % of control | dose: 10.0 mg/kg/injection, schedule: Q01DX001 (ip), vehicle: acetone 97 % of control

O=S(=O)(Nc1ccc(NS(=O)(=O)c2ccccc2)cc1)c1ccccc1
inactive: dose: 100.0 mg/kg/injection, schedule: Q01DX009 (ip), vehicle: saline sonified 97 % of control | dose: 100.0 mg/kg/injection, schedule: Q04DX003 (ip), vehicle: Klucel (hydroxypropylcellulose) (HPC) 93 % of control | dose: 200.0 mg/kg/injection, schedule: Q01DX009 (ip), vehicle: saline sonified 104 % of control | dose: 200.0 mg/kg/injection, schedule: Q04DX003 (ip), vehicle: Klucel (hydroxypropylcellulose) (HPC) 98 % of control | dose: 400.0 mg/kg/injection, schedule: Q01DX009 (ip), vehicle: saline sonified 98 % of control | dose: 400.0 mg/kg/injection, schedule: Q04DX003 (ip), vehicle: Klucel (hydroxypropylcellulose) (HPC) 90 % of control

Clc1ccc(-c2cc(=[N+]3CCCCC3)ss2)cc1
inactive: [7] 100 % of control | dose: 100.0 mg/kg/injection, schedule: Q04DX003 (ip), vehicle: saline with Tween-80 104 % of control | dose: 200.0 mg/kg/injection, schedule: Q04DX003 (ip), vehicle: saline with Tween-80 94 % of control

CCOC(=O)CNC(=O)C=[N+]=[N-]
inactive: dose: 350.0 mg/kg/injection, schedule: Q01DX Z (ip), vehicle: water 116 % of control | dose: 500.0 mg/kg/injection, schedule: Q01DX Z (ip), vehicle: water 91 % of control

COc1cccc(/C=N\N=C\c2cccc(OC)c2O)c1O
inactive: [2] 91 % of control | [3] 103 % of control and 105 % of control | [4] 94 % of control and 95 % of control

O=Cc1[nH]c(=S)[nH]c(=O)c1Cc1ccc2ccccc2c1
inactive: [2] 104 % of control | [3] 104 % of control

CC(=O)ON(C(C)=O)c1ccc(S(=O)(=O)c2ccc(N(OC(C)=O)C(C)=O)cc2)cc1
inactive: [5] 97 % of control | [6] 103 % of control | dose: 400.0 mg/kg/injection, schedule: Q04DX003 (ip), vehicle: saline 103 % of control

CCS(=O)(=O)c1ccc(C(=O)N=[N+]=[N-])cc1
inactive: [8] 92 % of control | [1] 97 % of control | [9] 105 % of control

CCOC(=O)c1c[nH]c2cc(OCC(C)C)c(OCC(C)C)cc2c1=O
inactive: [2] 104 % of control | [3] 100 % of control | [4] 86 % of control

COc1cc(/C=C(/C#N)[N+](=O)[O-])ccc1O
inactive: dose: 3.12 mg/kg/injection, schedule: Q01DX009 (ip), vehicle: DMSO 93 % of control | dose: 6.25 mg/kg/injection, schedule: Q01DX009 (ip), vehicle: DMSO 91 % of control | dose: 12.5 mg/kg/injection, schedule: Q01DX009 (ip), vehicle: DMSO 94 % of control | dose: 12.5 mg/kg/injection, schedule: Q04DX003 (ip), vehicle: DMSO 102 % of control | dose: 25.0 mg/kg/injection, schedule: Q01DX009 (ip), vehicle: DMSO 89 % of control | dose: 25.0 mg/kg/injection, schedule: Q04DX003 (ip), vehicle: DMSO 114 % of control | dose: 50.0 mg/kg/injection, schedule: Q01DX009 (ip), vehicle: DMSO 93 % of control | dose: 50.0 mg/kg/injection, schedule: Q04DX003 (ip), vehicle: DMSO 101 % of control

CCCCN(CCCC)CCCCCN
inactive: dose: 25.0 mg/kg/injection, schedule: Q01DX Z (ip), vehicle: carboxymethylcellulose (CMC) 106 % of control | dose: 50.0 mg/kg/injection, schedule: Q01DX Z (ip), vehicle: carboxymethylcellulose (CMC) 86 % of control | dose: 100.0 mg/kg/injection, schedule: Q01DX Z (ip), vehicle: carboxymethylcellulose (CMC) 90 % of control

O=C(/C=C\c1ccc(O)c(O)c1)OC1C(O)CC(OC(=O)/C=C/c2ccc(O)c(O)c2)(C(=O)O)CC1O (centres undefined)
inactive: dose: 100.0 mg/kg/injection, schedule: Q01DX009 (ip), vehicle: saline 105 % of control | dose: 200.0 mg/kg/injection, schedule: Q01DX009 (ip), vehicle: saline 91 % of control | dose: 400.0 mg/kg/injection, schedule: Q01DX009 (ip), vehicle: saline 94 % of control

CCSC(Sc1ccccc1)C(SCC)C(OC(=O)c1ccccc1)C(OC(=O)c1ccccc1)C(COC(=O)c1ccccc1)OC(=O)c1ccccc1 (centres undefined)
inactive: dose: 75.0 mg/kg/injection, schedule: Q01DX001 (ip), vehicle: other 95 % of control | dose: 150.0 mg/kg/injection, schedule: Q01DX001 (ip), vehicle: other 90 % of control | dose: 300.0 mg/kg/injection, schedule: Q01DX001 (ip), vehicle: other 94 % of control

CC(=O)OC1CCC2(C)C(=CCC3C2CCC2(C)C(OC(=O)c4ccccc4)CCC32)C1 (centres undefined)
inactive: [7] 89 % of control | dose: 200.0 mg/kg/injection, schedule: Q01DX009 (ip), vehicle: saline with Tween-80 110 % of control | dose: 400.0 mg/kg/injection, schedule: Q01DX009 (ip), vehicle: saline with Tween-80 96 % of control

CC(=O)OCCC/C(=C\c1ccc(N(C)C)cc1)[N+](=O)[O-]
inactive: [8] 91 % of control | [1] 91 % of control | [9] 98 % of control
